In patent publication US11407767B2, “Heterocyclyl substituted pyrrolopyridines that are inhibitors of the CDK12 kinase” (The University of Nottingham, priority 2017, dated 2022) one finds IC50 data, which are given here for 19 compounds.

In experiment [1] the target is CDK12/CycK (Homo sapiens, UniProt Q9NYV4). Briefly: Inhibition of CDK12 (ADP-Glo kinase assay). It counts as biochemical. The settings on record: 60 nM CDK12/CycK, 30 minutes pre-incubation, 1 μM ATP, 0.5 μM RBER-IRStide substrate, 1 h at 25° C., read-out: CDK12/cyclin K IC50. In short, it runs like this:
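ADP-Glo luminescence read after a 1 h, 25 °C reaction with 1 μM ATP and 0.5 μM RBER-IRStide peptide. Enzyme (60 nM) and compound were first pre-incubated 30 min; buffer 50 mM HEPES pH 7.5, 20 mM MgCl2, 3 mM MnCl2, 1% DMSO. IC50 fitted after blank subtraction.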
On the technique in general: In ADP-Glo the light output rises with the ADP produced.

The test system of experiment [2] is DM1 fibroblasts. The experiment in a line: Nuclear foci assay. It counts as cell-based. The settings on record: Fibroblast; DM1 fibroblasts treated for 24 hours, 11 point dilution 20 μM-19 nM, in situ hybridisation with cy3 labelled CAG10 probe. The protocol: DM1 fibroblasts were treated with compounds in an 11 point dilution series from 20 μM-19 nM for 24 hours. Following treatment, fluorescent in situ hybridisation was performed with a cy3 labelled CAG10 probe, to visualize nuclear foci and cells were analysed on a Molecular Devices plate reader with customised MetaExpress software (Ketley, A. et al. (2014). Hum Mol Genet, 23: 1551-1562). Compounds that reduced nuclear foci in a concentration dependent manner, compared to DMSO treated cells were identified.

Chain of CDK12/CycK (Q9NYV4 whole entry): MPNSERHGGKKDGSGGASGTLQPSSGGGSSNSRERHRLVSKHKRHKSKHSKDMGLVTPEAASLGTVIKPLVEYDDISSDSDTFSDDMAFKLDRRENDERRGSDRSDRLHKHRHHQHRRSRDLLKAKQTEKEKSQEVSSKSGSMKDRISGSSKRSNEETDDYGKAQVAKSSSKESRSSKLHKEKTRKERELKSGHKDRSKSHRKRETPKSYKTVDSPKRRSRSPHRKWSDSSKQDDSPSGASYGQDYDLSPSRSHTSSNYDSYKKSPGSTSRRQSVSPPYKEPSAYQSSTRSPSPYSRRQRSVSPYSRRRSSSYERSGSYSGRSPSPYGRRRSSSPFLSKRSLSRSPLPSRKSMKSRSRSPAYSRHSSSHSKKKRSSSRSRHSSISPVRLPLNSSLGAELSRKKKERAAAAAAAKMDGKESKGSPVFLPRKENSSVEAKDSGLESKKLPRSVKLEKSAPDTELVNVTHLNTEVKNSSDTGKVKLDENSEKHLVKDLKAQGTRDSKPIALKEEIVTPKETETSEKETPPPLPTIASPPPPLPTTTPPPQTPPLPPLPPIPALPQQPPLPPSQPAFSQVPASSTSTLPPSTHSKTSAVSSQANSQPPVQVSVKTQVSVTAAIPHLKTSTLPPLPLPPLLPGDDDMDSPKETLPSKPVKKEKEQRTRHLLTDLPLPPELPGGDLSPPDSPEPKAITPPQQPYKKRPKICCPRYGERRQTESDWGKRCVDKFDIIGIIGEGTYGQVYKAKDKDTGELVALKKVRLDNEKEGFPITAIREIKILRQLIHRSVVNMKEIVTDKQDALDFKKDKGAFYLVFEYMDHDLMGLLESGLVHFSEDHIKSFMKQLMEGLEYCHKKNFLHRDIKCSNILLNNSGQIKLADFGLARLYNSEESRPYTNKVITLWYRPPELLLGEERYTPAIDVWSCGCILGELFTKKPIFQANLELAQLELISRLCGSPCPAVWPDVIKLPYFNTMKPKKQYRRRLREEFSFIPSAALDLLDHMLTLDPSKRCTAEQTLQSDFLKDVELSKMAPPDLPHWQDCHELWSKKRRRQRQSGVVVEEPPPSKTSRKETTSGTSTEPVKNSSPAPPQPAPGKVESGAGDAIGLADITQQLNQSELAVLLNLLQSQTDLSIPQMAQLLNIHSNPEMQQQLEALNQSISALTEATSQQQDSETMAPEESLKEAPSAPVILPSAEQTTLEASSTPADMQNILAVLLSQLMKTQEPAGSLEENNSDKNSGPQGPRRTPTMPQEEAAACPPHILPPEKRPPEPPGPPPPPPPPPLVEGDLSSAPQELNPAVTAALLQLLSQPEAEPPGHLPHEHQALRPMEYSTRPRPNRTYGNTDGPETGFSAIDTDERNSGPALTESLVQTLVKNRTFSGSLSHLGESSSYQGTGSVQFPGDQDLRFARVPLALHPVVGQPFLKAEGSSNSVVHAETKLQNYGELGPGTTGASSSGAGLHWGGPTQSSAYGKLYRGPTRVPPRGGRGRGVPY
Chain of CDK12/CycK (O75909 whole entry partner): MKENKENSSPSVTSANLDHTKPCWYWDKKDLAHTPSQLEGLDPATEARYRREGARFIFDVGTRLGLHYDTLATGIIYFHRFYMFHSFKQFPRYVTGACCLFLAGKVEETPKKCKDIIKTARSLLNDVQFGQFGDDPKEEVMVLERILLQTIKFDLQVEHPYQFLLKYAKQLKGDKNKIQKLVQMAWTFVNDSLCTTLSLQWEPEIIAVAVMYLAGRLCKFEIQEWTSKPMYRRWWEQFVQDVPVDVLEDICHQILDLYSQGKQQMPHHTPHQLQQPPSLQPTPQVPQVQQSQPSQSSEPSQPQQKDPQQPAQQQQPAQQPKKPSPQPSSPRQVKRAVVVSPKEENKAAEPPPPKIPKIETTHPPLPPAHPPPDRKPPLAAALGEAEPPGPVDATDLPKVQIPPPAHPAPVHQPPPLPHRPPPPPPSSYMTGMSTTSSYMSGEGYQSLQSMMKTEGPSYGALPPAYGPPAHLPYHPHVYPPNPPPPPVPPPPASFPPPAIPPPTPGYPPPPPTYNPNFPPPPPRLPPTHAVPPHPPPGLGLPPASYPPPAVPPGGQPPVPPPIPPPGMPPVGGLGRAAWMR

Turning to `C/C=C/C(=O)N1CCC[C@H]1C(=O)NCCc1cc2c(-c3cnn4ncccc34)ccnc2[nH]1` [Example 44, (S,E)-1-(But-2-enoyl)-N-(2-(4-(pyrazolo[1,5-b]pyridazin-3-yl)-1H-pyrrolo[2,3-b]pyridin-2-yl)ethyl)pyrrolidine-2-carboxamide], the IC50 in experiment [1] lay in the range of 1000 to 30000 nM; in experiment [2] it was 1000 to 10000 nM.

For the compound `CC(C)(CCl)C(=O)N1CCC[C@H]1C(=O)NCCc1cc2c(-c3cnn4ncccc34)ccnc2[nH]1` [Example 45, (S)-1-(3-Chloro-2,2-dimethylpropanoyl)-N-(2-(4-(pyrazolo[1,5-b]pyridazin-3-yl)-1H-pyrrolo[2,3-b]pyridin-2-yl)ethyl)pyrrolidine-2-carboxamide], the IC50 fell in the range of 100 to 1000 nM in experiment [1] and 10000 to 100000 nM in experiment [2].

With `C=CC(=O)N1CCC[C@@H]1C(=O)NCCc1cc2c(-c3cnn4ncccc34)c(Cl)cnc2[nH]1` [Example 54, (R)-1-Acryloyl-N-(2-(5-chloro-4-(pyrazolo[1,5-b]pyridazin-3-yl)-1H-pyrrolo[2,3-b]pyridin-2-yl)ethyl)pyrrolidine-2-carboxamide], the IC50 is below 100 nM in experiment [1] and below 1000 nM in experiment [2].

In the case of `C=CC(=O)N1CCC[C@H](C(=O)NCCc2cc3c(-c4cnn5ncccc45)c(Cl)cnc3[nH]2)C1` [Example 55, (S)-1-Acryloyl-N-(2-(5-chloro-4-(pyrazolo[1,5-b]pyridazin-3-yl)-1H-pyrrolo[2,3-b]pyridin-2-yl)ethyl)piperidine-3-carboxamide], the IC50 was below 100 nM in experiment [1] and 1000 to 10000 nM in experiment [2].

Take `C=CC(=O)Nc1ccc(C(=O)NCc2cc3c(-c4cnn5ncccc45)ccnc3[nH]2)cc1` [Example 57, 4-Acrylamido-N-((4-(pyrazolo[1,5-b]pyridazin-3-yl)-1H-pyrrolo[2,3-b]pyridin-2-yl)methyl)benzamide]: the results for the IC50 in experiment [1] and in experiment [2] were 100 to 1000 nM and 1000 to 10000 nM, respectively.

With `C=CC(=O)N1CCOC[C@@H]1C(=O)NCCc1cc2c(-c3cnn4ncccc34)ccnc2[nH]1` [Example 63, (R)-4-Acryloyl-N-(2-(4-(pyrazolo[1,5-b]pyridazin-3-yl)-1H-pyrrolo[2,3-b]pyridin-2-yl)ethyl)morpholine-3-carboxamide], the IC50 in experiment [1] was below 100 nM; in experiment [2], below 1000 nM.

As for `CN(C)C/C=C/C(=O)N1CCC(CC(=O)N2CCC(c3cc4c(-c5cnn6ncccc56)ccnc4[nH]3)C2)CC1` (centres unmarked) [Example 69, (E)-4-(Dimethylamino)-1-(4-(2-oxo-2-(3-(4-(pyrazolo[1,5-b]pyridazin-3-yl)-1H-pyrrolo[2,3-b]pyridin-2-yl)pyrrolidin-1-yl)ethyl)piperidin-1-yl)but-2-en-1-one], the IC50 was 100 to 1000 nM in experiment [1] and 10000 to 100000 nM in experiment [2].

For `C[C@@H](Cl)C(=O)N1CCC[C@@H]1C(=O)N1CCC(c2cc3c(-c4cnn5ncccc45)ccnc3[nH]2)C1` (stereo partly drawn) [Example 70, (2R)-2-Chloro-1-((2R)-2-(3-(4-(pyrazolo[1,5-b]pyridazin-3-yl)-1H-pyrrolo[2,3-b]pyridin-2-yl)pyrrolidine-1-carbonyl)pyrrolidin-1-yl)propan-1-one], the IC50 was in the range of 100 to 1000 nM in experiment [1] and 1000 to 10000 nM in experiment [2].

With `CN(C)C/C=C/C(=O)N1CC[C@@H](OCC(=O)N2CCC(c3cc4c(-c5cnn6ncccc56)ccnc4[nH]3)C2)C1` (stereo partly drawn) [Example 71, (E)-4-(Dimethylamino)-1-((3R)-3-(2-oxo-2-(3-(4-(pyrazolo[1,5-b]pyridazin-3-yl)-1H-pyrrolo[2,3-b]pyridin-2-yl)pyrrolidin-1-yl)ethoxy)pyrrolidin-1-yl)but-2-en-1-one], the figures for the IC50 in experiment [1] and in experiment [2] were 100 to 1000 nM and 1000 to 10000 nM, respectively.

Turning to `CN(C)C/C=C/C(=O)N1CCC[C@@H](C(=O)N2CCC(c3cc4c(-c5cnn6ncccc56)ccnc4[nH]3)C2)C1` (stereo partly drawn) [Example 72, (E)-4-(Dimethylamino)-1-((3R)-3-(3-(4-(pyrazolo[1,5-b]pyridazin-3-yl)-1H-pyrrolo[2,3-b]pyridin-2-yl)pyrrolidine-1-carbonyl)piperidin-1-yl)but-2-en-1-one], the values for the IC50 in experiment [1] and in experiment [2] were 100 to 1000 nM and 1000 to 10000 nM, respectively.

As for `CCC(=O)N1CCC[C@H]1C(=O)NCCc1cc2c(-c3cnn4ncccc34)ccnc2[nH]1` [Example 73, (S)-1-Propionyl-N-(2-(4-(pyrazolo[1,5-b]pyridazin-3-yl)-1H-pyrrolo[2,3-b]pyridin-2-yl)ethyl)pyrrolidine-2-carboxamide], the IC50 in experiment [1] lay in the range of 1000 to 30000 nM; in experiment [2], 10000 to 100000 nM.

`C=CC(=O)Nc1ccc(C(=O)NCCc2cc3c(-c4cnn5ncccc45)ccnc3[nH]2)cc1` [Example 76, 4-Acrylamido-N-(2-(4-(pyrazolo[1,5-b]pyridazin-3-yl)-1H-pyrrolo[2,3-b]pyridin-2-yl)ethyl)benzamide]: the IC50 in experiment [1] is below 100 nM; in experiment [2] it was below 1000 nM.

`CC#CC(=O)N1CCC[C@H]1C(=O)NCCc1cc2c(-c3cnn4ncccc34)ccnc2[nH]1` [Example 83, (S)-1-(But-2-ynoyl)-N-(2-(4-(pyrazolo[1,5-b]pyridazin-3-yl)-1H-pyrrolo[2,3-b]pyridin-2-yl)ethyl)pyrrolidine-2-carboxamide]: the IC50 is 100 to 1000 nM in experiment [1] and 1000 to 10000 nM in experiment [2].

As for `CN(C)C/C=C/C(=O)N1CCC[C@H]1C(=O)NCCc1cc2c(-c3cnn4ncccc34)ccnc2[nH]1` [Example 84, (S,E)-1-(4-(Dimethylamino)but-2-enoyl)-N-(2-(4-(pyrazolo[1,5-b]pyridazin-3-yl)-1H-pyrrolo[2,3-b]pyridin-2-yl)ethyl)pyrrolidine-2-carboxamide], the figures for the IC50 in experiment [1] and in experiment [2] were 1000 to 30000 nM and 10000 to 100000 nM, respectively.

With `C=CC(=O)N1CCCC[C@H]1C(=O)NCCc1cc2c(-c3cnn4ncccc34)ccnc2[nH]1` [Example 92, (S)-1-Acryloyl-N-(2-(4-(pyrazolo[1,5-b]pyridazin-3-yl)-1H-pyrrolo[2,3-b]pyridin-2-yl)ethyl)piperidine-2-carboxamide], the IC50 in experiment [1] was below 100 nM; in experiment [2], 1000 to 10000 nM.

Consider `C=CC(=O)N1CCC[C@H]1C(=O)NCCc1cc2c(-c3cnn(C)c3)ccnc2[nH]1` [Example 94, (S)-1-Acryloyl-N-(2-(4-(1-methyl-1H-pyrazol-4-yl)-1H-pyrrolo[2,3-b]pyridin-2-yl)ethyl)pyrrolidine-2-carboxamide], for which the IC50 in experiment [1] was in the range of 100 to 1000 nM; in experiment [2] it was 10000 to 100000 nM.

With `C=CC(=O)Nc1cccc(C(=O)N2CCN(Cc3cc4c(-c5cnn6ncccc56)ccnc4[nH]3)CC2)c1` [Example 111, N-(3-(4-((4-(Pyrazolo[1,5-b]pyridazin-3-yl)-1H-pyrrolo[2,3-b]pyridin-2-yl)methyl)piperazine-1-carbonyl)phenyl)acrylamide], the results for the IC50 in experiment [1] and in experiment [2] were 100 to 1000 nM and 1000 to 10000 nM, respectively.

Regarding `C=CC(=O)Nc1ccc(C(=O)N2CCN(Cc3cc4c(-c5cnn6ncccc56)ccnc4[nH]3)CC2)cc1` [Example 112, N-(4-(4-((4-(Pyrazolo[1,5-b]pyridazin-3-yl)-1H-pyrrolo[2,3-b]pyridin-2-yl)methyl)piperazine-1-carbonyl)phenyl)acrylamide], the IC50 in experiment [1] fell in the range of 100 to 1000 nM; in experiment [2] it was 1000 to 10000 nM.

With `C=CC(=O)N1CCC[C@H]1C(=O)N1CCN(Cc2cc3c(-c4cnn5ncccc45)ccnc3[nH]2)CC1` [Example 113, (S)-1-(2-(4-((4-(Pyrazolo[1,5-b]pyridazin-3-yl)-1H-pyrrolo[2,3-b]pyridin-2-yl)methyl)piperazine-1-carbonyl)pyrrolidin-1-yl)prop-2-en-1-one], the IC50 in experiment [1] fell in the range of 1000 to 30000 nM; in experiment [2], 10000 to 100000 nM.
